Patent publication US6486179B2, “Use of protein kinase C inhibitors to enhance the clinical efficacy of oncolytic agents and radiation therapy” (Eli Lilly and Company, priority 1996, dated 2002)

What was measured:
protein kinase C = conditions: statement in words, cited from earlier work
[1] = tested on: Human leukemia cells U937; assay: Viability of U937 cells after γ-irradiation (propidium iodide exclusion, FACS); type: cell-based; conditions: 3 nM bryostatin 1 for 24 hours, then 500 or 1000 rads; viability 72 hours after irradiation; triplicate
Description: Human leukemia cells U937 were treated for 24 hours with either 3 nM bryostatin 1 or the control solution, i.e., the vehicle for bryostatin 1. The cells were then irradiated with either 500 or 1000 rads of γ-irradiation. Seventy-two hours after irradiation, cellular viability was examined using propidium iodide exclusion and quantified by FACS analysis as previously described in Ways et al., Cell Growth & Differentiation 1994, 5: 1195-1203. Viability assays were performed in triplicate. […] Similar results were obtained in several repeated experiments.

PKC-β = target: T1, PKC-β (Homo sapiens, UniProt P05771); assay: Western blot of PKC-β in bryostatin 1 treated U937 cells; type: cell-based
T1 construct: endogenous in cells; host or cells: U937 human leukemia cells
T1 sequence (P05771 whole entry): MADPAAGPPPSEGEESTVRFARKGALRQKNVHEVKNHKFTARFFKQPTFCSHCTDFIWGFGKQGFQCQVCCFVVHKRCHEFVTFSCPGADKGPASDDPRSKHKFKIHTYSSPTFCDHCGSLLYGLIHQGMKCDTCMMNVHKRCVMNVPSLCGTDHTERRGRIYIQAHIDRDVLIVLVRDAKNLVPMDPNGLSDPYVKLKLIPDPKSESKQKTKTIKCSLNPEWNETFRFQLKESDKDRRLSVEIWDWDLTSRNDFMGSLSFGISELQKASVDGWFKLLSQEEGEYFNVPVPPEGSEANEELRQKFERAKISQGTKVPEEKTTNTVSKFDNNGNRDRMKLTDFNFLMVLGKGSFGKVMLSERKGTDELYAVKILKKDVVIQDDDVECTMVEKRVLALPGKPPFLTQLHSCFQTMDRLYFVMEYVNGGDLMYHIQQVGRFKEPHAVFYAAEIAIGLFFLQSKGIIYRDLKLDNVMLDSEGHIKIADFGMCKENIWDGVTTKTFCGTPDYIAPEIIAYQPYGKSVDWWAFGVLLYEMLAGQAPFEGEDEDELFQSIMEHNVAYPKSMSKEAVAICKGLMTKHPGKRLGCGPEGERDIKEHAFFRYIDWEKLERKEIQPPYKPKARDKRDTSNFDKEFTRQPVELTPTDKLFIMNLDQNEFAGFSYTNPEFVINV
Description: Human leukemia cells U937 in the amount of 0.5×10^6 were treated with various amount of bryostatin 1 for 24 hours. Subsequently, the cells were solubilized for preparation of protein samples according to a routine procedure. The protein samples from bryostatin treated cells were then used in Western blot analysis with a protein kinase C-β specific antiserum previously described in Ways et al., Cell Growth & Differentiation 1994, 5: 1195-1203. […] In a repeated experiment, similar results were obtained.

Row | Compound | isozyme selectivity (protein kinase C; selective to protein kinase C over other kinases) | protein kinase C inhibition (protein kinase C; no value) | γ-irradiation-induced apoptosis [1] | time within which bryostatin treatment caused PKC-β activity to decrease (PKC-β; 1 nM bryostatin) [h] | time within which bryostatin treatment caused PKC-β activity to decrease (PKC-β; 10 nM bryostatin) [h]
1 | CN(C)C[C@@H]1CCn2cc(c3ccccc32)C2=C(C(=O)NC2=O)c2cn(c3ccccc23)CCO1.Cl [Example 5g, (S)-3,4-[N, N′-1,1′-((2″-ethoxy)-3′″(O)-4′″-(N,N-dimethylamino)-butane)-bis-(3,3′-indolyl)]-1(H)-pyrrole-2,5-dione Hydrochloride Salt] | selective for the beta-1 and beta-2 isozymes | potent protein kinase C inhibitor |  |  | 
2 | CCC/C=C/C=C/C(=O)O[C@H]1/C(=C/C(=O)OC)C[C@H]2C[C@H]([C@@H](C)O)OC(=O)C[C@H](O)C[C@@H]3C[C@H](OC(C)=O)C(C)(C)[C@](O)(C[C@@H]4C/C(=C/C(=O)OC)C[C@H](/C=C/C(C)(C)[C@]1(O)O2)O4)O3 [bryostatin 1] |  |  | enhanced | ≤ 24 | ≤ 2
